Molecules are shown by their SMILES. pIC50: −log10 of the molar value. Some results are limits rather than exact numbers.

Here are results for 16 molecules from patent US20240343694A1, “PYRIMIDINE DERIVATIVE, METHOD FOR PREPARING SAME, AND PHARMACEUTICAL COMPOSITION FOR PREVENTING OR TREATING CANCER COMPRISING SAME AS ACTIVE INGREDIENT” (KOREA RESERARCH INSTITUTE OF CHEMICAL TECHNOLOGY, priority 2021, published 2024).

Format in all cases: biochemical
What all share (conditions): recombinant enzyme, 37° C. for 2 hours

One assay concerns the target HER2 A775_G776insYVMA (Homo sapiens (Human), UniProt P04626, INS775YVMA). As to the kind of experiment: HTRF inhibitory activity against HER2 mutant enzyme. The procedure:
The activity of the compounds of the present invention against HER mutant enzymes was measured using the HTRF system purchased by Cisbio as follows. As a HER2 mutant enzyme, the HER2 A775_G776insYVMA mutant enzyme was used by purchasing a recombinant protein provided by Carna Biosciences.
The composition of the assay buffer used for activity measurement was 50 mM tris-HCl pH 7.5, 100 mM NaCl, 7.5 mM MgCl2, 3 mM KCl, 0.01% tween 20, 0.1% BSA, and 1 mM DTT. In addition thereto, the enzymatic reaction was performed using a peptide substrate labeled with ATP at a concentration of […] and biotin at a concentration of […]. The analysis of the activity inhibitory effect of the compounds on HER2 A775_G776insYVMA mutation was performed according to the following method. • Component 1:4 μL of HER2 A775_G776insYVMA mutant enzyme • Component 2:2 μL of compound solution • Component 3:4 μL of ATP and a biotin labeled peptide
The enzyme reaction begins by first mixing component 1 and component 2 and then adding component 3 thereto. After the reaction at 37° C. for 2 hours, […] of a measurement solution consisting of streptavidin-XL665 and a europium-labeled anti-phosphotyrosine antibody purchased from Cisbio was added to the enzyme reaction solution and reacted at room temperature for 1 hour. […] The measured values at 7 compound concentrations were analyzed using the Prism program (version 5.01, Graphpad Software, Inc.), and the IC50 (μM) values, which are measures of the compounds' inhibitory ability, were calculated.

A further assay deals with EGFR A763_Y764insFHEA (Homo sapiens (Human), UniProt P00533, INS763FHEA). As to the kind of experiment: HTRF inhibitory activity against EGFR mutant enzyme (EGFR A763_Y764insFHEA). How it is done:
(§1) The activity of the compounds of the present invention against EGFR mutant enzymes was measured using the HTRF system purchased from Cisbio as follows. For an EGFR mutant enzyme, the EGFR del19 enzyme was a recombinant protein purchased from Carna Biosciences, and the EGFR A763_Y764insFHEA enzyme was a recombinant protein purchased from SignalChem, respectively.
(§2) The composition of the assay buffer used for activity measurement was 50 mM tris-HCl pH 7.5, 100 mM NaCl, 7.5 mM MgCl2, 3 mM KCl, 0.01% tween 20, 0.1% BSA, and 1 mM DTT. An enzymatic reaction was performed using a peptide substrate labeled with ATP at a concentration of […] and biotin at a concentration of […]. The analysis of the inhibitory effect of the compounds on EGFR activity was performed according to the following method. • Component 1:4 μL of EGFR mutant enzyme • Component 2:2 μL of compound solution • Component 3:4 μL of ATP and a biotin labeled peptide
(§3) The enzyme reaction begins by first mixing component 1 and component 2 and then adding component 3 thereto. After the reaction at 37° C. for 2 hours, […] of a measurement solution consisting of streptavidin-XL665 and a europium-labeled anti-phosphotyrosine antibody purchased from Cisbio was added to the enzyme reaction solution and reacted at room temperature for 1 hour. Finally, the ratio of fluorescence values at 615 nm and 665 nm was measured using Perkin-Elmer's Envision instrument to calculate enzyme activity and confirm the inhibitory ability of the compounds. The measured values at 7 compound concentrations were analyzed using the Prism program (version 5.01, Graphpad Software, Inc.), and the IC50 (μM) values, which are measures of the compounds' inhibitory activity, were calculated.
A general note: TR-FRET usually uses a lanthanide donor and a delayed reading to cut background.

A further assay has as its target EGFR del19 (Homo sapiens (Human), UniProt P00533, DEL746-750). The experiment in a line: HTRF inhibitory activity against EGFR mutant enzyme (EGFR del19). How it is done:
as §1, §2, §3

Chain of EGFR A763_Y764insFHEA (P00533 other isoform, or with tags, fused parts or gaps del 1-694/ins FHEA behind 763 limits assumed): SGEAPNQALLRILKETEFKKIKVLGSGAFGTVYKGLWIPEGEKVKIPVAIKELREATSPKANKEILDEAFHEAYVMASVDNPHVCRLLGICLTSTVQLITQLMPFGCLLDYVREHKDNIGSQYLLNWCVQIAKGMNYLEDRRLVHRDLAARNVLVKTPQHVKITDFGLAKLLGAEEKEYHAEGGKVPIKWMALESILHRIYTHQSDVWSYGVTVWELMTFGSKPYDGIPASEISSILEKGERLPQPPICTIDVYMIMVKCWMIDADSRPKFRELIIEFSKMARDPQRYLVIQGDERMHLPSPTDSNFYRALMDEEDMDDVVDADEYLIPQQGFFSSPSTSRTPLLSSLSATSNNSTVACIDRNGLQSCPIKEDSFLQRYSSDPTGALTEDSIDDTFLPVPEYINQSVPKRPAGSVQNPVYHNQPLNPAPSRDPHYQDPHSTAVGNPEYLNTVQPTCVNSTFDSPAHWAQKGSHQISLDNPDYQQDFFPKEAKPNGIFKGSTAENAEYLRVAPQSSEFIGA
Chain of EGFR del19 (P00533 other isoform, or with tags, fused parts or gaps del 1-668/del 746-750 limits assumed): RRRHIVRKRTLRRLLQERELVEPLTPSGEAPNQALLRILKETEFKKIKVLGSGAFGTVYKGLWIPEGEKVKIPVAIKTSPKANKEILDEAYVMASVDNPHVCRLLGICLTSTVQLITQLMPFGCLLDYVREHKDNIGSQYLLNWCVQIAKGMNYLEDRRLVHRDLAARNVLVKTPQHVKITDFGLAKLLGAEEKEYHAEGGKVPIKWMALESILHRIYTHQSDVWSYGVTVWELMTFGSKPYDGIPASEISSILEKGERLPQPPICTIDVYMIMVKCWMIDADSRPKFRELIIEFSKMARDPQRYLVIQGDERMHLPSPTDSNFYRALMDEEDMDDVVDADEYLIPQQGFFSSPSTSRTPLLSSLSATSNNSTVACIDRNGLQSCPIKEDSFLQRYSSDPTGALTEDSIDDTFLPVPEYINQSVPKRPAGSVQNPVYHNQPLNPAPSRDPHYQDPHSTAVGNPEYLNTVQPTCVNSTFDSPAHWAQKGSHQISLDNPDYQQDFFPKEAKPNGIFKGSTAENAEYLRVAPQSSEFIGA
Chain of HER2 A775_G776insYVMA (P04626 other isoform, or with tags, fused parts or gaps del 1-675/ins YVMA behind 775 limits assumed): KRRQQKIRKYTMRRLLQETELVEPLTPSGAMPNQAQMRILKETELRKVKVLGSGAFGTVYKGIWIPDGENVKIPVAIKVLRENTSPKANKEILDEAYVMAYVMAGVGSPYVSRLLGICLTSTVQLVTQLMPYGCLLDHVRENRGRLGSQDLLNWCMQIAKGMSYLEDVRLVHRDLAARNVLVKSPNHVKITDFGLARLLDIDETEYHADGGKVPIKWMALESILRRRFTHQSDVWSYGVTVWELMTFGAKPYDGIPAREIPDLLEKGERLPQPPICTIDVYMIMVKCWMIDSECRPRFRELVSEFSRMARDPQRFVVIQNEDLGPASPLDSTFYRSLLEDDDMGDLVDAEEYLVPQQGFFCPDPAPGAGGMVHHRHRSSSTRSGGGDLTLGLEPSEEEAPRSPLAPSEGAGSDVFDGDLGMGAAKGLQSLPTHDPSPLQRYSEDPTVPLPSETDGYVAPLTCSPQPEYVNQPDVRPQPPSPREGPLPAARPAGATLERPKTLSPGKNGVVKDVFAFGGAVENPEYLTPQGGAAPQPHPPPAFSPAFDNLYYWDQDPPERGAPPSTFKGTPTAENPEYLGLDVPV

Regarding `C=CC(=O)Nc1cc(Nc2ncc(Cl)c(Nc3cccc(CC)c3NS(=O)(=O)CC)n2)c(OC)cc1N(C)CCN(C)C` [Example 42, N-(5-((5-chloro-4-((3-ethyl-2-(ethylsulfonamido)phenyl)amino)pyrimidin-2-yl)amino)-2-((2-(dimethylamino)ethyl)(methyl)amino)-4-methoxyphenyl)acrylamide], the pIC50 (as a rule, −log10 of the IC50, conventionally taken in molar units) at HER2 A775_G776insYVMA is 8.22; at EGFR A763_Y764insFHEA, > 9.00; on EGFR del19, > 9.00.

For the molecule `C=CC(=O)Nc1cc(Nc2ncc(Cl)c(Nc3ccc(C)c(C)c3NS(C)(=O)=O)n2)c(OC)cc1N(C)CCN(C)C` [Example 44, N-(5-((5-chloro-4-((3,4-dimethyl-2-(methylsulfonamido)phenyl)amino)pyrimidin-2-yl)amino)-2-((2-(dimethylamino)ethyl)(methyl)amino)-4-methoxyphenyl)acrylamide], the pIC50 at HER2 A775_G776insYVMA is 8.22; at EGFR A763_Y764insFHEA, > 9.00; on EGFR del19 it was > 9.00.

For the molecule `C=CC(=O)Nc1cc(Nc2ncc(C(=O)OC)c(Nc3cccc4c3N(S(C)(=O)=O)CCC4)n2)c(OC)cc1N(C)CCN(C)C` [Example 51, methyl 2-((5-acrylamido-4-((2-(dimethylamino)ethyl)(methyl)amino)-2-methoxyphenyl)amino)-4-((1-(methylsulfonyl)-1,2,3,4-tetrahydroquinolin-8-yl)amino)pyrimidin-5-carboxylate], the pIC50 at HER2 A775_G776insYVMA was 7.52; at EGFR A763_Y764insFHEA, > 9.00; at EGFR del19, > 9.00.

Consider `C=CC(=O)Nc1cc(Nc2ncc(C(=O)OC(C)C)c(Nc3cccc4c3N(S(C)(=O)=O)CCC4)n2)c(OC)cc1N(C)CCN(C)C` [Example 52, isopropyl 2-((5-acrylamido-4-((2-(dimethylamino)ethyl)(methyl)amino)-2-methoxyphenyl)amino)-4-((1-(methylsulfonyl)-1,2,3,4-tetrahydroquinolin-8-yl)amino)pyrimidin-5-carboxylate], for which the pIC50 was 8.40 at HER2 A775_G776insYVMA, > 9.00 on EGFR A763_Y764insFHEA and > 9.00 on EGFR del19.

For `C=C(F)C(=O)Nc1cc(Nc2ncc(Cl)c(Nc3cccc4c3N(S(C)(=O)=O)CCC4)n2)c(OC)cc1N(C)CCN(C)C` [Example 54, N-(5-((5-chloro-4-((1-(methylsulfonyl)-1,2,3,4-tetrahydroquinolin-8-yl)amino)pyrimidin-2-yl)amino)-2-((2-(dimethylamino)ethyl)(methyl)amino)-4-methoxyphenyl)-2-fluoroacrylamide], the pIC50 is 8.00 at HER2 A775_G776insYVMA, > 9.00 at EGFR A763_Y764insFHEA and > 9.00 at EGFR del19.

Regarding `C=CC(=O)Nc1cc(Nc2ncc(C(=O)OC)c(Nc3cccc4c3N(S(C)(=O)=O)CC4)n2)c(OC)cc1N(C)CCN(C)C` [Example 60, methyl 2-((5-acrylamido-4-((2-(dimethylamino)ethyl)(methyl)amino)-2-methoxyphenyl)amino)-4-((1-(methylsulfonyl)indolin-7-yl)amino)pyrimidin-5-carboxylate], the values for the pIC50 at HER2 A775_G776insYVMA, at EGFR A763_Y764insFHEA and on EGFR del19 were 8.00, > 9.00 and > 9.00, respectively.

As to `C=CC(=O)Nc1cc(Nc2ncc(Cl)c(Nc3cccc4ccn(S(C)(=O)=O)c34)n2)c(OC)cc1N(C)CCN(C)C` [Example 67, N-(5-((5-chloro-4-((1-(methylsulfonyl)-1H-indol-7-yl)amino)pyrimidin-2-yl)amino)-2-((2-(dimethylamino)ethyl)(methyl)amino)-4-methoxyphenyl)acrylamide], the pIC50 at HER2 A775_G776insYVMA is 7.09; on EGFR A763_Y764insFHEA, > 9.00; on EGFR del19, > 9.00.

As for `C=CC(=O)Nc1cc(Nc2ncc(Cl)c(Nc3ccc4nccnc4c3N(C)S(C)(=O)=O)n2)c(OC)cc1N(C)CCN(C)C` [Example 68, N-(5-((5-chloro-4-((5-(N-methylmethylsulfonamido)quinoxalin-6-yl)amino)pyrimidin-2-yl)amino)-2-((2-(dimethylamino)ethyl)(methyl)amino)-4-methoxyphenyl)acrylamide], the pIC50 on HER2 A775_G776insYVMA was 8.22; at EGFR A763_Y764insFHEA, > 9.00; on EGFR del19, > 9.00.

As to `C=CC(=O)Nc1cc(Nc2ncc(Cl)c(Nc3ccc4nccnc4c3NS(C)(=O)=O)n2)c(OC)cc1N(C)CCN(C)C` [Example 69], the pIC50 on HER2 A775_G776insYVMA was 8.22; at EGFR A763_Y764insFHEA, > 9.00; on EGFR del19, > 9.00.

Consider `C=CC(=O)Nc1cc(Nc2ncc(Cl)c(Nc3ccccc3N3CCCS3(=O)=O)n2)c(OC)cc1N(C)CCN(C)C` [Example 70, N-(5-((5-chloro-4-((2-(1,1-dioxidoisothiazolidin-2-yl)phenyl)amino)pyrimidin-2-yl)amino)-2-((2-(dimethylamino)ethyl)(methyl)amino)-4-methoxyphenyl)acrylamide], for which the pIC50 is 7.48 at HER2 A775_G776insYVMA, 8.40 on EGFR A763_Y764insFHEA and > 9.00 on EGFR del19.

Turning to `C=CC(=O)Nc1cc(Nc2ncc(Cl)c(Nc3ccccc3N3CCCCS3(=O)=O)n2)c(OC)cc1N(C)CCN(C)C` [Example 71, N-(5-((5-chloro-4-((2-(1,1-dioxido-1,2-thiazinan-2-yl)phenyl)amino)pyrimidin-2-yl)amino)-2-((2-(dimethylamino)ethyl)(methyl)amino)-4-methoxyphenyl)acrylamide], the pIC50 was 7.21 on HER2 A775_G776insYVMA, 8.30 at EGFR A763_Y764insFHEA and > 9.00 on EGFR del19.

As for `C=CC(=O)Nc1cc(Nc2ncc(Cl)c(Nc3cccc4c3N(S(C)(=O)=O)CC4)n2)c(OC)cc1N(C)CCN1CCN(C)CC1` [Example 73, N-(5-((5-chloro-4-((1-(methylsulfonyl)indolin-7-yl)amino)pyrimidin-2-yl)amino)-4-methoxy-2-(methyl(2-(4-methylpiperazin-1-yl)ethyl)amino)phenyl)acrylamide], the pIC50 at HER2 A775_G776insYVMA was 8.30; on EGFR A763_Y764insFHEA it was > 9.00; on EGFR del19 it was > 9.00.

In the case of `C=CC(=O)Nc1cc(Nc2ncc(Cl)c(Nc3cccc4c3N(S(=O)(=O)CC)CC4)n2)c(OC)cc1N(C)CCN1CCCC1` [Example 75, N-(5-((5-chloro-4-((1-(ethylsulfonyl)indolin-7-yl)amino)pyrimidin-2-yl)amino)-4-methoxy-2-(methyl(2-(pyrrolidin-1-yl)ethyl)amino)phenyl)acrylamide], the values for the pIC50 on HER2 A775_G776insYVMA, on EGFR A763_Y764insFHEA and on EGFR del19 were 8.52, > 9.00 and > 9.00, respectively.

On to `C=CC(=O)Nc1cc(Nc2ncc(Cl)c(Nc3cccc4c3N(S(C)(=O)=O)CC4)n2)c(OC)cc1OCCN1CCOCC1` [Example 77, N-(5-((5-chloro-4-((1-(methylsulfonyl)indolin-7-yl)amino)pyrimidin-2-yl)amino)-4-methoxy-2-(2-morpholinoethoxy)phenyl)acrylamide], for which the negative logarithm of the IC50 (pIC50) is 8.70 on HER2 A775_G776insYVMA, > 9.00 on EGFR A763_Y764insFHEA and > 9.00 on EGFR del19.

As for `C=CC(=O)Nc1cc(Nc2ncc(Cl)c(Nc3cccc4c3N(S(C)(=O)=O)CC4)n2)c(OC)cc1OCCN1CCCCC1` [Example 78, N-(5-((5-chloro-4-((1-(methylsulfonyl)indolin-7-yl)amino)pyrimidin-2-yl)amino)-4-methoxy-2-(2-(piperidin-1-yl)ethoxy)phenyl)acrylamide], the pIC50 was 8.52 on HER2 A775_G776insYVMA, > 9.00 on EGFR A763_Y764insFHEA and > 9.00 on EGFR del19.

For `C=CC(=O)Nc1cc(Nc2ncc(Cl)c(Nc3cccc4c3N(S(=O)(=O)CC)CC4)n2)c(OC)cc1N(C)CCN1CCC1` [Example 81, N-(2-((2-(azetidin-1-yl)ethyl)(methyl)amino)-5-((5-chloro-4-((1-(ethylsulfonyl)indolin-7-yl)amino)pyrimidin-2-yl)amino)-4-methoxyphenyl)acrylamide], the pIC50 at HER2 A775_G776insYVMA, on EGFR A763_Y764insFHEA and at EGFR del19 was > 9.00 throughout.
